From US20230181564A1, “Potent Tetrahydroquinolone Eliminates Apicomplexan Parasites” (The University of Chicago, priority 2020, published 2023)
Values after ≈ are worked out from the molar mass of the structure shown.

Legend:
[1] = Metabolic stability in mouse liver microsomes; type: in vitro ADME; conditions: predicted half-life in mouse liver microsomes; no unit in table (101 minutes for JAG021)
[2] = Kinetic/aqueous solubility in PBS pH 7.4; type: physicochemical; conditions: for PBS Sol pH7.4: solubility in Phosphate Buffered Saline pH 7.4, first value of cell; for solubility: amorphous compounds
Method: PBS Sol/Toxicity pH7.4 refers to solubility of the compound in Phosphate Buffered Saline (PBS) at pH7.4. […] Parasites were RH-YFP expressing tachyzoites (Tachy) and EGS (Brady) strains. Studies of effects of inhibitors on HFF or on T.gondii tachyzoites were performed with triplicate wells in at least two biological replicate experiments. Studies of effects on bradyzoites were performed at least twice in at least two biological replicate experiments. Compounds with much less inhibition of mammalian than T. gondii cytochrome bc in the saffarine enzyme assay (indicated by **) provide potential to further develop compounds, if unanticipated toxicity occurs from JAG21.
(§1) Structure Activity Relationship (SAR) and comparison of effect on T.gondii and HFF enzyme activity. […] The MDCK-MDR1 Permeability Assay was also performed. […] These were measured by Chem Partners.

[3] = test system: T. gondii mitochondrial membrane potential (cytochrome bc); experiment: Mitochondrial membrane potential by the safranine method (T. gondii, compared with HFF); type: cell-based, Toxoplasma gondii; conditions: for Effect on T. gondii mitochondrial membrane potential: doses as high as 4 μM
Method: T.gondii and HFF Mitochondrial Membrane Potential Measurements—the mitochondrial membrane potential was measured by the safranine method according to Vercesi et al, 1998). Freshly egressed T. gondii tachyzoites were filtered and washed twice with intracellular buffer (125 mM sucrose, 65 mM KCl, 10 mM HEPES-KOH buffer, pH 7.2, 1 mM MgCl2 and 2.5 mM potassium phosphate). After washing, the parasites were resuspended in the same buffer at 10^9/ml. An aliquot of 50 μL of this suspension was added to a cuvette containing Safranin 0, 2.5 μM and Succinate 1 mM in final volume of 2 mL of the intracellular buffer. The fluorescence was measured with a Hitachi 7000 spectrofluorometer with setting Ex. 495/Em. 586. Once the baseline fluorescence is testable, 30 μM digitonin was added to permeabilize the parasites. 85 seconds after permeabilization, the THQ derivatives, dissolved in DMSO, were added. 5 μM of FCCP (Carbonyl cyanide-4-(trifluoromethoxy) phenylhydrazone) was used as an uncoupler reference for calculations and its effect was considered 100%. Similar conditions for measuring the mitochondrial potential of mammalian cells were used with the following changes: the mammalian cells were re-suspended at 10^8/ml. 50 μl of mammalian cells was also used for each run in a cuvette with […]. The substrate used for mammalian cells was 5 mM glutamate and 5 mM malate. A higher concentration of digitonin (50 μM) was used to permeabilize the mammalian cells. The compounds were added at about 400 seconds after permeabilization. Each experiment was repeated at least three times in duplicates. Statistical analysis, unpaired student t test, was performed using GraphPad Prism 8.0 (GraphPad Software, Inc., San Diego, Calif.).
Mitochondrial membrane potential measurements were performed with permeabilized T.gondii tachyzoites in suspension using safranin O, which loads into polarized membranes. T. gondii tachyzoites were permeabilized with digitonin to allow the mitochondrial substrate succinate to cross the membrane and energize the mitochondrion. The fluorescence of safranin O, which loads into energized mitochondria was used to measure the membrane potential. The energized state of the mitochondrion is observed by a decrease in fluorescence (FIGS. 3A,C,E). Trifluoromethoxy carbonylcyanide phenylhydrazone (FCCP) was used to depolarize the membrane, which causes the fluorescence to go up as shown in FIG. 3A. JAG21 depolarized the membrane potential even at concentrations as low as 2 nM (FIG. 3C,D). JAG21 and Atovaquone had similar effects on the mitochondrial membrane potential (FIG. 3D). […] The effect of these THQ compounds against the T. gondii mitochondrial membrane potential was greater than the effect on the human foreskin fibroblast membrane potential (FIG. 3E,F). […]

[4] = test system: Human Foreskin Fibroblast (HFF); experiment: Cytotoxicity assay with WST-1 on HFF; type: cell-based; conditions: for Toxicity* (highest concentration tested that does not show toxicity to HFF): WST assay, second value of cell
Method: PBS Sol/Toxicity pH7.4 refers to solubility of the compound in Phosphate Buffered Saline (PBS) at pH7.4. […] Tachy/Brady IC50 was determined in studies in which cultures of parasites in HFF were treated with varying concentrations of the compound and there was 50% inhibition of the replication (number) of parasites. Parasites were RH-YFP expressing tachyzoites (Tachy) and EGS (Brady) strains. Studies of effects of inhibitors on HFF or on T.gondii tachyzoites were performed with triplicate wells in at least two biological replicate experiments. Studies of effects on bradyzoites were performed at least twice in at least two biological replicate experiments. Compounds with much less inhibition of mammalian than T. gondii cytochrome bc in the saffarine enzyme assay (indicated by **) provide potential to further develop compounds, if unanticipated toxicity occurs from JAG21.
Cytotoxicity Assays in parallel with RH Strain T.gondii in vitro studies. Toxicity assays used WST-1 cell proliferation reagent (Roche) as in Fomovska et al. (2012). HFF were grown on a flat, clear-bottomed, black 96-well plate. Confluent HFF were treated with inhibitory compounds at concentrations of 10 μM and 50 μM. Compounds were diluted in IMDM-C, and 20 μL were added to each designated well, with triplicates for each condition. A gradient with 2 fold-decreasing concentrations of DMSO from 10% to 0% in colorless, translucent IMDM-C was used as a control. The plate was incubated for 72 hours at 37° C. 10 μL WST-1 reagent (Roche) were added to each well. Cells were incubated for 30-60 minutes. Absorbance was read using a fluorimeter at 420 nm. A higher degree of color change (and absorbance) indicated mitochondrial activity and cell viability.
Because T. gondii grows inside cells, if a compound were toxic to host HFF then it would make the compound appear to be spuriously effective (Fomovska et al. 2012; Fomovska et al. 2012a), when in actuality only toxicity for the host cell would be measured. Cytotoxicity to HFF was therefore assessed for all compounds at 10 μM. Results of this experiment are in Table 1, toxicity column. A two-way ANOVA and subsequent pairwise comparison found none of the differences in absorbance, compared to the media-DMSO vehicle controls, to be statistically significant (p>0.05). Most of these compounds are not toxic at 10 μM (the limit of solubility) and that cytotoxicity to cells can be attributed to DMSO in the solution, not the compound.

[5] = test system: P-glycoprotein (MDR1, ABCB1); experiment: in vitro; type: in vitro ADME, canine; conditions: dog, MDCK-MDR1
Method: as §1

| Compound | T1/2 (M) [1] | PBS Sol pH7.4 [2] [μM] | also measured |
| --- | --- | --- | --- |
| Cc1[nH]c2c(c(=O)c1-c1ccc(Oc3cccc(OC(F)(F)F)c3)cc1)CCCC2 [AS006] | 25.88 | 0.55 | – |
| Cc1[nH]c2c(c(=O)c1-c1ccc(Oc3cccc(C(F)(F)F)c3)cc1)CCCC2 [AS012] | 30.05 | 2.19 | – |
| Cc1[nH]c2c(c(=O)c1-c1ccc(Oc3ccc(F)c(Cl)c3)cc1)CCCC2 [AS021] | 41.09 | 2 | – |
| Cc1[nH]c2c(c(=O)c1-c1ccc(Oc3cc(Cl)cc(Cl)c3)cc1)CCCC2 [AS022] | 28.62 | 6.25 | – |
| Cc1[nH]c2c(c(=O)c1-c1ccc(Oc3cc(Cl)nc(Cl)c3)cc1)CCCC2 [AS034] | 24.93 | 5.05 | – |
| Cc1[nH]c2ccccc2c(=O)c1-c1ccc(Oc2ccc(OC(F)(F)F)cc2)cc1 [ELQ271, reference compound] | – | 0.15 | solubility [2]: 0.2 µM (≈ 0.0823 µg/mL) |
| Cc1[nH]c2c(c(=O)c1-c1ccc(Oc3ccc(C(=O)O)cc3)cc1)CCCC2 [JAG046] | – | – | Effect on T. gondii mitochondrial membrane potential [3]: almost no effect; Toxicity* (highest concentration tested that does not show toxicity to HFF) [4]: ND/5 μM |
| Cc1[nH]c2c(c(=O)c1-c1ccc(Oc3cccc(C(=O)O)c3)cc1)CCCC2 [JAG047] | – | – | Effect on T. gondii mitochondrial membrane potential [3]: almost no effect; Toxicity* (highest concentration tested that does not show toxicity to HFF) [4]: ND/5 μM |
| Cc1[nH]c2c(c(=O)c1-c1ccc(Oc3ccc(Cl)cc3)cc1)CCCC2 [JAG050] | – | 16.41 | Concentration depolarizing the T. gondii mitochondrial membrane potential ([3]; permeabilized tachyzoites, safranin O): ≥ 200 nM; Toxicity to human cells in the in vitro model (HFF) [4]: not toxic; solubility [2]: 16 µM (≈ 5.85 µg/mL) |
| Cc1[nH]c2c(c(=O)c1-c1cccc(Oc3ccc(Cl)cc3)c1)CCCC2 [NP034] | – | – | Toxicity* (highest concentration tested that does not show toxicity to HFF) [4]: ND/5 μM |
| Cc1[nH]c2c(c(=O)c1-c1cccc(Oc3ccc(C(F)(F)F)cc3)c1)CCCC2 [NP035] | – | – | Toxicity* (highest concentration tested that does not show toxicity to HFF) [4]: ND/5 μM |

More lines, main results first:

| T1/2 (M) [1] | PBS Sol pH7.4 [2] [μM] | Compound | also measured |
| --- | --- | --- | --- |
| 39.17 | 2.38 | Cc1[nH]c2c(c(=O)c1-c1ccc(Oc3ccc(F)cc3)cc1)CCCC2 [JAG058] | – |
| 12.42 | 0.33 | Cc1[nH]c2c(c(=O)c1-c1ccc(Oc3cccc(Cl)c3)cc1)CCCC2 [JAG062] | – |
| 126.96 | 0.45 | Cc1[nH]c2c(c(=O)c1-c1ccc(Oc3ccc(C(F)(F)F)cc3)cc1)CCCC2 [JAG063] | – |
| 17.38 | 0.5 | Cc1[nH]c2c(c(=O)c1-c1ccc(Oc3cccc(F)c3)cc1)CCCC2 [JAG069] | – |
| 63.1 | 0.68 | Cc1[nH]c2c(c(=O)c1-c1ccc(Oc3ccc(Cl)c(Cl)c3)cc1)CCCC2 [JAG084] | – |
| 111.93 | 0.03 | Cc1[nH]c2c(c(=O)c1-c1ccc(Oc3ccc(OC(F)(F)F)cc3)cc1)CCC(C)C2 (stereo not drawn) [JAG107] | – |
| 63.28 | 0.16 | CCC1CCc2c([nH]c(C)c(-c3ccc(Oc4ccc(OC(F)(F)F)cc4)cc3)c2=O)C1 (stereo not drawn) [JAG121] | – |
| – | 5.12 | Cc1[nH]c2cnccc2c(=O)c1-c1ccc(Oc2ccc(OC(F)(F)F)cc2)cc1 [JAG129] | – |
| 144.43 | 0.02 | Cc1[nH]c2c(c(=O)c1-c1ccc(Oc3ccc(OC(F)(F)F)cc3)cc1)CCC(C(F)(F)F)C2 (stereo not drawn) [JAG162] | – |
| – | 0.94 | Cc1[nH]c2ccnn2c(=O)c1-c1ccc(Oc2ccc(OC(F)(F)F)cc2)cc1 [MJM141] | – |
| 20.97 | 1.97 | Cc1[nH]c2c(c(=O)c1-c1ccc(Oc3ccccc3)cc1)CCCC2 [MJM170] | solubility ([2]; phosphate buffered saline, pH 7.4, aqueous buffer, kinetic from dmso stock): 2 µM (≈ 0.663 µg/mL); Papp [5]: > 10 ×10⁻⁶ cm/s; efflux ratio [5]: < 1.5 |
